Publication PMC5564600 (Oncotarget, 2017)
“And” between values parts separate entries of the source, which are not always exact repeats. Identical values can stand only once.

What was measured:
Test in all cases: biochemical
Format in all cases: binding
[1] = target: T1, panel of 442 kinases (Homo sapiens, UniProt P22694); details: kinase PKAC-beta; for remaining activity at 1 µM: read-out: PKAC-beta (% of control at 1 µM)
T1 construct: purchased Ambit Biosciences (scanMAXX KINOMEscan)

[2] = target: T2, panel of 442 kinases (Homo sapiens, UniProt P36888, D835H); details: FLT3(D835H); for remaining activity at 1 µM: read-out: % of control at 1 µM
T2 construct: purchased Ambit Biosciences (scanMAXX KINOMEscan)
T2 sequence (P36888 27-993 D835H): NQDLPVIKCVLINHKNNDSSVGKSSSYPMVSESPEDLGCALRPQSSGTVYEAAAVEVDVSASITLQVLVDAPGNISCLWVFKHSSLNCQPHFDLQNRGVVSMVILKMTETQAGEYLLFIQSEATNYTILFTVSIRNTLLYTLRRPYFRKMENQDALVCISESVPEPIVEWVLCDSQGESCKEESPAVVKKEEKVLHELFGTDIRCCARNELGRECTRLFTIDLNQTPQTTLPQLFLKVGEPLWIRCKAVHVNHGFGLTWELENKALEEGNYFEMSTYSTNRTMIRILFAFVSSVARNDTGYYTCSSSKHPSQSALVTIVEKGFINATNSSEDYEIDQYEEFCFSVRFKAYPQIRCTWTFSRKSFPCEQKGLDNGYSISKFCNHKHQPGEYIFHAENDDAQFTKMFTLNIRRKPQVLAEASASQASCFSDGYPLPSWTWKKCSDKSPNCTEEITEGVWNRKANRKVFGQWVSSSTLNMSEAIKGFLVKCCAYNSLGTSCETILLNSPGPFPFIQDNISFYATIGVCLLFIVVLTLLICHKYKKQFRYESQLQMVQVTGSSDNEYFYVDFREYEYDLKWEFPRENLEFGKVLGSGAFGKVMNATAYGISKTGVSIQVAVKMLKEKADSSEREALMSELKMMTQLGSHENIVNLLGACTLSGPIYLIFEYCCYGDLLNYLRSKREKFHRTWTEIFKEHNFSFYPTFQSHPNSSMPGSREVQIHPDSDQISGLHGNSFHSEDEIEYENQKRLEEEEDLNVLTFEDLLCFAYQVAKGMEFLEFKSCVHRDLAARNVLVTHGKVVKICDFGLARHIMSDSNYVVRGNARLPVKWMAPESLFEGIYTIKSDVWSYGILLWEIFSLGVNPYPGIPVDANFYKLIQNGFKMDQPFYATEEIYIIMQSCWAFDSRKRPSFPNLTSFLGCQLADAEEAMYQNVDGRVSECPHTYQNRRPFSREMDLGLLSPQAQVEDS

[3] = target: T3, panel of 442 kinases (Homo sapiens, UniProt Q16816); details: kinase PHKG1; for remaining activity at 1 µM: read-out: % of control at 1 µM
T3 construct: purchased Ambit Biosciences (scanMAXX KINOMEscan)
T3 sequence (Q16816 whole entry): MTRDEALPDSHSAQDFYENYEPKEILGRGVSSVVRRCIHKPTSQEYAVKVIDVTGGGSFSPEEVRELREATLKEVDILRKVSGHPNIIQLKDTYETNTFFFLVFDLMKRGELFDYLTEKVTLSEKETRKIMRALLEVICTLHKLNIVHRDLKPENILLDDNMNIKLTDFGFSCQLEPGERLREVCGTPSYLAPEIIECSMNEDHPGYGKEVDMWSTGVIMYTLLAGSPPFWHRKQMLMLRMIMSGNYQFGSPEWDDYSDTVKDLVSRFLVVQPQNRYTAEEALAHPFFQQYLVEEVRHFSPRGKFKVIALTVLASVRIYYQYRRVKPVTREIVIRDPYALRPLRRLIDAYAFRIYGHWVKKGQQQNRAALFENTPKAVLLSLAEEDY

[4] = target: T4, panel of 442 kinases (Homo sapiens, UniProt Q6ZN16); details: kinase MAP3K15; for remaining activity at 1 µM: read-out: % of control at 1 µM
T4 construct: purchased Ambit Biosciences (scanMAXX KINOMEscan)
T4 sequence (Q6ZN16 1-1313): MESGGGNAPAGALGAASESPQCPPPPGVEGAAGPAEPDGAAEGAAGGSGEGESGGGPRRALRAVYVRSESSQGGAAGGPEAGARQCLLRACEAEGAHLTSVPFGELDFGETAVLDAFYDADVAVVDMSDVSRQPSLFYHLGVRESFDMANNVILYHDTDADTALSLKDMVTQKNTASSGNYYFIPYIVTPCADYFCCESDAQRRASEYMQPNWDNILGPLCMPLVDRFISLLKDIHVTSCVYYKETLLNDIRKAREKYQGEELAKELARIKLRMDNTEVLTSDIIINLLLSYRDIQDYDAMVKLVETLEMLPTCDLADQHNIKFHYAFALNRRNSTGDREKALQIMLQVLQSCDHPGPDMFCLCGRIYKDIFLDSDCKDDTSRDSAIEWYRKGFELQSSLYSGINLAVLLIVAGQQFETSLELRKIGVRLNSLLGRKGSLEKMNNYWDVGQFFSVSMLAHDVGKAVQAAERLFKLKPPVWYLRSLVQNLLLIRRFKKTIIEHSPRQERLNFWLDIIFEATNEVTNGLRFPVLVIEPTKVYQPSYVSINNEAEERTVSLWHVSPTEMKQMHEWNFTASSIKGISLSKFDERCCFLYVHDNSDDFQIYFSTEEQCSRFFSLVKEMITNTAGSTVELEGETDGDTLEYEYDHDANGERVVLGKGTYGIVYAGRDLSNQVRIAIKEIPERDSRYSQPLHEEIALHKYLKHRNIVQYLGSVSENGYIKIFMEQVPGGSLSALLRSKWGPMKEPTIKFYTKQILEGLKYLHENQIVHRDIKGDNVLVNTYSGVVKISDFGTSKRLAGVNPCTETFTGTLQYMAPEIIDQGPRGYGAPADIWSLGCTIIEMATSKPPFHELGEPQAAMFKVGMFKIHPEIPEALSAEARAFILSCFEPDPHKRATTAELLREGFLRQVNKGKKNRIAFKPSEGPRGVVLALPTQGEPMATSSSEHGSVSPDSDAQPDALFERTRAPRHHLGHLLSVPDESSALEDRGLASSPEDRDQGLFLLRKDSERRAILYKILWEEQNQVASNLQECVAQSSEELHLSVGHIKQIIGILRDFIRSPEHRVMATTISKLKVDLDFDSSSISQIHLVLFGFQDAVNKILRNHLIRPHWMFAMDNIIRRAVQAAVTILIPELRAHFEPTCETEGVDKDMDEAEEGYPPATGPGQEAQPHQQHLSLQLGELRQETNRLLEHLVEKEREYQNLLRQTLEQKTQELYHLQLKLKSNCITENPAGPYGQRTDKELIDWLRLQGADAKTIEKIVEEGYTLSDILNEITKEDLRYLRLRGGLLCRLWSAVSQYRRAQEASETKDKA

[5] = tested on: panel of 442 kinases
[6] = 10 µM, read-out: % of control at 10 µM
[7] = EGFR(L747-E749del, A750P), 1 µM
[8] = EGFR(L747-S752del, P753S), 1 µM
[9] = kinase KIT(D816V), first of two lines so named (r206), 1 µM

| Compound | remaining activity at 1 µM [1] | remaining activity at 10 µM ([1]; 10 µM, read-out: PKAC-beta (% of control at 10 µM)) | remaining activity at 1 µM [2] | remaining activity at 10 µM [2, 6] | remaining activity at 1 µM [3] | remaining activity at 10 µM [3, 6] | remaining activity at 1 µM [4] | remaining activity at 10 µM [4, 6] | % of control at 1 µM ([5]; 1 μM) | % of control at 10 µM ([5]; 10 μM) | % of control at 1 µM ([5]; FLT3(ITD), 1 µM) | % of control at 1 µM [5, 7] | % of control at 1 µM [5, 8] | % of control at 1 µM ([5]; EGFR(L747-T751del,Sins), 1 µM) | % of control at 1 µM [5, 9] |
| --- | --- | --- | --- | --- | --- | --- | --- | --- | --- | --- | --- | --- | --- | --- | --- |
| Nc1cc(C(F)(F)F)c(-c2cc(N3CCOCC3)nc(N3CCOCC3)n2)cn1 [Buparlisib] | 79% | 100% | 89% | 76% | 99% | 100% | 97% | 100% | 85 % of control and 100 % of control and 91 % of control and 86 % of control | 96 % of control and 100 % of control and 93 % of control and 88 % of control | – | – | – | – | – |
| Cn1c(=O)n(-c2ccc(C(C)(C)C#N)cc2)c2c3cc(-c4cnc5ccccc5c4)ccc3ncc21 [Dactolisib, 2-methyl-2-[4-(3-methyl-2-oxo-8-quinolin-3-yl-2,3-dihydroimidazo[4,5-c]quinolin-1-yl)-phenyl] propionitrile] | 90% | – | 26% | – | 100% | – | 100% | – | 81 % of control and 100 % of control and 86 % of control and 59 % of control | – | 44 % of control | – | – | – | – |
| COc1ncc(-c2ccc3nccc(-c4ccnnc4)c3c2)cc1NS(=O)(=O)c1ccc(F)cc1F [Omipalisib] | 100% | – | 100% | – | 86% | – | 90% | – | – | – | 100 % of control | 92 % of control | 87 % of control | 100 % of control | 100 % of control |
| CS(=O)(=O)N1CCN(Cc2cc3nc(-c4cccc5[nH]ncc45)nc(N4CCOCC4)c3s2)CC1 [Pictilisib, 2-(1H-indazol-4-yl)-6-(4-methanesulfonyl-piperazin-1-ylmethyl)-4-morpholin-4-yl-t hieno[3,2-d]pyrimidine] | – | – | – | – | – | – | – | – | 98 % of control and 70 % of control and 99 % of control and 77 % of control and 72 % of control | – | – | – | – | – | – |
| FC(F)c1nc2ccccc2n1-c1nc(N2CCOCC2)nc(N2CCOCC2)n1 [ZSTK474, 2-(difluoromethyl)-1-[4,6-di(4-morpholinyl)-1,3,5-triazin-2-yl]-1H-benzimidazole] | 100% | – | 100% | – | 100% | – | 100% | – | – | – | 99 % of control | 89 % of control | 100 % of control | 100 % of control | 100 % of control |
